Measurements published in patent US10857160B2, “Oil-in-water nanoemulsion composition of clobetasol” (LABORATORIOS SALVAT, S.A., priority 2017, dated 2020).

Test system: normotensive albino New Zealand rabbits
Experiment: Study of effect on intraocular pressure (IOP)
Format: in vivo, rabbit
Settings: intra-cameral administration, dexamethasone 0.1% (positive control)
Protocol: Control samples: • Positive control: dexamethasone 0.1%. • Negative control: 0.9% sodium chloride saline solution Material and Method • The laboratory animals used were normotensive albino New Zealand rabbits. The rabbits were adapted to periods of light/dark (12/12 hours) needed to adjust and maintain stable the diurnal cycle of the intraocular pressure (IOP). • Rabbits were distributed in different groups: the positive control group (positive control sample), the negative control group (negative control sample) and two test groups (two test samples). • The treatment involved the injection of dexamethasone into the anterior chamber, meanwhile for the rest of groups; each animal was topically instilled, in each eye with the control sample or the test composition 4 times a day for 15 days. • Measurement of IOP of the groups was performed twice a day. After the instillation in each animal, it was observed the possibility of adverse effects of the respective compound on the ocular surface. Results

elevation of the intraocular pressure: statistically significant elevation
Compound: C[C@@H]1C[C@H]2[C@@H]3CCC4=CC(=O)C=C[C@]4(C)[C@@]3(F)[C@@H](O)C[C@]2(C)[C@@]1(O)C(=O)CO [dexamethasone]
